Experiments:
Glucocorticoid receptor = target: T1, Glucocorticoid receptor (Homo sapiens, UniProt P04150); type: functional
T1 sequence (P04150 whole entry): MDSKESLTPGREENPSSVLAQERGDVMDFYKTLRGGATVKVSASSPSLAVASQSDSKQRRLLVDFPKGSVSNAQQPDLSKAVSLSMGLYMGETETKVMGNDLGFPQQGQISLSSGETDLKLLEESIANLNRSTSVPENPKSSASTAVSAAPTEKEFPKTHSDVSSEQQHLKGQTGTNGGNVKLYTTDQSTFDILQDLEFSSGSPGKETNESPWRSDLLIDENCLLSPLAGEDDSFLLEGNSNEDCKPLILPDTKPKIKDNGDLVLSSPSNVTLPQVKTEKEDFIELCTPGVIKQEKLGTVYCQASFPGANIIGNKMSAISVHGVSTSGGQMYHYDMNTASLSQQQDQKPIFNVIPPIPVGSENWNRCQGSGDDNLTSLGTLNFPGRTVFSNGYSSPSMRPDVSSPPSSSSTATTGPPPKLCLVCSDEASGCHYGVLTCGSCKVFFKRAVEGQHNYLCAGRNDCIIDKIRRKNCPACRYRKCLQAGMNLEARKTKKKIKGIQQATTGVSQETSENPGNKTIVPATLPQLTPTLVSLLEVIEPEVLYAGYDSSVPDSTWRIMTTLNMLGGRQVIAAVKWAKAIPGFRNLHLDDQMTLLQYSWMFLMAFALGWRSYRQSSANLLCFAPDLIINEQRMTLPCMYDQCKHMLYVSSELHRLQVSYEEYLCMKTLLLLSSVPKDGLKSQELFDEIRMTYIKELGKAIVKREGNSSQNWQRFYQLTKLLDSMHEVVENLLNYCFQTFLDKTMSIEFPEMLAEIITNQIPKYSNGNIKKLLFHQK

Androgen receptor = target: T2, Androgen receptor (Rattus norvegicus, UniProt P15207); type: functional
T2 sequence (P15207 whole entry): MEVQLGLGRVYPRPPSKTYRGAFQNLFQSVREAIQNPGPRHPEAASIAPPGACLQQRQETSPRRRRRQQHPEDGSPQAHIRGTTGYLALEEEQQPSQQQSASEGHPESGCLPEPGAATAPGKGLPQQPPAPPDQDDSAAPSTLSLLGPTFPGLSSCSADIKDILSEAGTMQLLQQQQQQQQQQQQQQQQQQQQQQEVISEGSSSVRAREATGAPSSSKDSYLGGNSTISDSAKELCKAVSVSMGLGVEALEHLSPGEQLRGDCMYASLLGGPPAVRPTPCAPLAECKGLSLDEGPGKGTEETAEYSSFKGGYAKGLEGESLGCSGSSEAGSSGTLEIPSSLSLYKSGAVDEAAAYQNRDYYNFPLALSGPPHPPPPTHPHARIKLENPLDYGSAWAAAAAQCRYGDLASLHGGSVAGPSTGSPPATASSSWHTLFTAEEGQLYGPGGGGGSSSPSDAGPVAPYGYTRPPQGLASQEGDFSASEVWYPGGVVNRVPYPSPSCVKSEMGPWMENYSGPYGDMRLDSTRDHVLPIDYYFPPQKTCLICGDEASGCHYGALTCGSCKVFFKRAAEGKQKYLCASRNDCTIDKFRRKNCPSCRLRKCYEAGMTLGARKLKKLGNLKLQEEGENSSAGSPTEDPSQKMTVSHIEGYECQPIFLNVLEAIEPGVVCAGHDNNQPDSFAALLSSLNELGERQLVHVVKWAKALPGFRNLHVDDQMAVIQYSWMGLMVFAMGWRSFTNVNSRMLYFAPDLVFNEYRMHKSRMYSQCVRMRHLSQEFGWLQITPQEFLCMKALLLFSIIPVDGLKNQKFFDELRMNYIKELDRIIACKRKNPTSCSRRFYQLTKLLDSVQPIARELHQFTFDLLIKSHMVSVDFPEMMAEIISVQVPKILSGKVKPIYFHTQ

Histamine H1 receptor = Histamine H1 receptor (Homo sapiens, UniProt P35367)
[1] = target: T3, Alpha-2B adrenergic receptor (Homo sapiens, UniProt P18089)
T3 sequence (P18089 whole entry): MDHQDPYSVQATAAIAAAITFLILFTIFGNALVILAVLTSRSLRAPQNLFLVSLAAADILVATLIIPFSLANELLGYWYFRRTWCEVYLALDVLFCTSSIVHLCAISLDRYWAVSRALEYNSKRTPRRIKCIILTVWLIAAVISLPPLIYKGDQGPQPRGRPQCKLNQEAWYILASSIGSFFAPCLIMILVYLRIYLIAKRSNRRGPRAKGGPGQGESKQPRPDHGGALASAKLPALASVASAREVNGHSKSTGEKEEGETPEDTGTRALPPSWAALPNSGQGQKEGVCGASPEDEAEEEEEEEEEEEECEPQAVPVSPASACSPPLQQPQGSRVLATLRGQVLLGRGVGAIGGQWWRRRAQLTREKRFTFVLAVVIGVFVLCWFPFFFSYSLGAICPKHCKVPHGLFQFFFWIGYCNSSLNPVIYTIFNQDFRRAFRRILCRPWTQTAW

Glucagon receptor = Glucagon receptor (Homo sapiens, UniProt P47871)
[2] = target: Neurotensin receptor type 1 (Homo sapiens, UniProt P30989)
[3] = target: T4, 5-hydroxytryptamine receptor 1A (Homo sapiens, UniProt P08908)
T4 sequence (P08908 whole entry): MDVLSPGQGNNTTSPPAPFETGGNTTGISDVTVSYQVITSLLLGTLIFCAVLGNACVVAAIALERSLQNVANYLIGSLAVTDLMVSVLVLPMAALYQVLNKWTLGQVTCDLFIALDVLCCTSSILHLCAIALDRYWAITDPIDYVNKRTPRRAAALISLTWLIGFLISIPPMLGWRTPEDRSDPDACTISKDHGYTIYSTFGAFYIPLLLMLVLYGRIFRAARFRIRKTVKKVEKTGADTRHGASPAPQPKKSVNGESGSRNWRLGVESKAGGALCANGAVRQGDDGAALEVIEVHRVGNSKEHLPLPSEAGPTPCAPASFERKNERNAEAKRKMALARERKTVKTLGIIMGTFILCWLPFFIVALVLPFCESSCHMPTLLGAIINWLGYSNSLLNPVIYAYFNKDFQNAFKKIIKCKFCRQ

[4] = target: Beta-2 adrenergic receptor (Homo sapiens, UniProt P07550)
[5] = target: 5-hydroxytryptamine receptor 2B (Homo sapiens, UniProt P41595)
Melanocortin receptor 4 = Melanocortin receptor 4 (Homo sapiens, UniProt P32245)
Note: assay procedure not described here.

5-hydroxytryptamine receptor 2B, sequence (P41595 whole entry): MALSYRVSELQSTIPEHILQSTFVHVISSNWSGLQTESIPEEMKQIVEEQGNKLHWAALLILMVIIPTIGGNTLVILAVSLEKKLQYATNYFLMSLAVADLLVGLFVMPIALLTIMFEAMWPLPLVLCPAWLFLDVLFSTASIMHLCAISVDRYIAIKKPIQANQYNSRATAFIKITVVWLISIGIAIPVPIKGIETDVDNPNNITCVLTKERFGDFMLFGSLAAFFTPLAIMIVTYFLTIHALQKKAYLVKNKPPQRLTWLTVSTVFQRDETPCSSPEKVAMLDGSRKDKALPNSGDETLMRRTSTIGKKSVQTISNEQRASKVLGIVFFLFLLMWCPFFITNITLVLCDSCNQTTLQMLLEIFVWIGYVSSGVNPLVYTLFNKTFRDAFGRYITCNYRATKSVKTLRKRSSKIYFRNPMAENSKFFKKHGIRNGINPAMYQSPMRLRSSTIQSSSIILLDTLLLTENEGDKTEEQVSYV
Glucagon receptor, sequence (P47871 whole entry): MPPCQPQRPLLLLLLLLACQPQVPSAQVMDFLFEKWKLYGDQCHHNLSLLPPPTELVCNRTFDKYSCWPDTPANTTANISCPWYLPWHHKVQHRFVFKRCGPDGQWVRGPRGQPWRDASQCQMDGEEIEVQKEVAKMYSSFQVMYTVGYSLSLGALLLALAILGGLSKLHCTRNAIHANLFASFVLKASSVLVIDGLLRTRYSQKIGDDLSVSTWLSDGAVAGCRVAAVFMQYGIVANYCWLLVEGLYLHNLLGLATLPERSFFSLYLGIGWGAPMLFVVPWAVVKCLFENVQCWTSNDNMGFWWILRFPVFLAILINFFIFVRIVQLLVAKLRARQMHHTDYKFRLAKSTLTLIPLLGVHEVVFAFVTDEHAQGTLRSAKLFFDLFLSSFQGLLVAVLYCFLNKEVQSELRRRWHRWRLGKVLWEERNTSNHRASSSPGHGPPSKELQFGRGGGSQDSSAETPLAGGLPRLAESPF
Neurotensin receptor type 1, sequence (P30989 whole entry): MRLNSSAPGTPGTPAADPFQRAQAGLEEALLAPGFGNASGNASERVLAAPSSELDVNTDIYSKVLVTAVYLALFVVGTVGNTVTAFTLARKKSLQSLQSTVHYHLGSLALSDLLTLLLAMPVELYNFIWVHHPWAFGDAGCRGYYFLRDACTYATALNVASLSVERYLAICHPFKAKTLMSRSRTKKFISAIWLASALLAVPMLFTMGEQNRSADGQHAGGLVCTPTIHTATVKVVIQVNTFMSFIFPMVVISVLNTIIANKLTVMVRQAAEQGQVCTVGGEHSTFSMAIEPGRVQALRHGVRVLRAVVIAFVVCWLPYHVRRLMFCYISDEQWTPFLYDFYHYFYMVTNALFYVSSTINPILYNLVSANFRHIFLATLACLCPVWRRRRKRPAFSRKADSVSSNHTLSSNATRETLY
Beta-2 adrenergic receptor, sequence (P07550 whole entry): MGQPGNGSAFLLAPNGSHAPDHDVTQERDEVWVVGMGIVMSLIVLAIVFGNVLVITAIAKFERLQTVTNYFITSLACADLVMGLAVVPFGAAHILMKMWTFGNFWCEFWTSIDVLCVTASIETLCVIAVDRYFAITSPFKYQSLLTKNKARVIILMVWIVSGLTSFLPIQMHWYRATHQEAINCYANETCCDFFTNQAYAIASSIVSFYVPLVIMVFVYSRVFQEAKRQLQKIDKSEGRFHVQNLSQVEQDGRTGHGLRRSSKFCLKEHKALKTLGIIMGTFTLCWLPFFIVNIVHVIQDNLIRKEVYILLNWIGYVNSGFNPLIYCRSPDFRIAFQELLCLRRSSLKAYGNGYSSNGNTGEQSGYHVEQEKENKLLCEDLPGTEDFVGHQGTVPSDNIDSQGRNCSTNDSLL
Histamine H1 receptor, sequence (P35367 whole entry): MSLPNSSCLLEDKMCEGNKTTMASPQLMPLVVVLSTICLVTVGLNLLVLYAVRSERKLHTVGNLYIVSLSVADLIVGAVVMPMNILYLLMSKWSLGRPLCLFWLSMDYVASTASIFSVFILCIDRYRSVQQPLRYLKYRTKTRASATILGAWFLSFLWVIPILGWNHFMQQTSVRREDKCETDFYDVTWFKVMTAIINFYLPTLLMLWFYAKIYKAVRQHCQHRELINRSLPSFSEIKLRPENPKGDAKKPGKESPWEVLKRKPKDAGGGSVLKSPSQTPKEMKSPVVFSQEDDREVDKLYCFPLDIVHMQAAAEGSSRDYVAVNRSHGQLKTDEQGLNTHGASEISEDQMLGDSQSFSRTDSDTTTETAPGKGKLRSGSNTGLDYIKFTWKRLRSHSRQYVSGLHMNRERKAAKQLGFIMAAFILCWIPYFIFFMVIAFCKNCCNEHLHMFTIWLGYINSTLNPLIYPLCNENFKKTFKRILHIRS
Melanocortin receptor 4, sequence (P32245 whole entry): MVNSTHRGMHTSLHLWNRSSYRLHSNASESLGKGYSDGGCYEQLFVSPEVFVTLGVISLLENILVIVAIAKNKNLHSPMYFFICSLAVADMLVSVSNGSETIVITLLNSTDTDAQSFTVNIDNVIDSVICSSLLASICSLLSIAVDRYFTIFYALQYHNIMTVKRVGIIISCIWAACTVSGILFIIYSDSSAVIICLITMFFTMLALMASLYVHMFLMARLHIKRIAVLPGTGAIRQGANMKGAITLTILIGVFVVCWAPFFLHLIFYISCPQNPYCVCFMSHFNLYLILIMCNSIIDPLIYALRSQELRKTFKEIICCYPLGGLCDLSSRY

Structure (SMILES) | AC50 (Glucocorticoid receptor) [µM] | AC50 (Androgen receptor) [µM] | AC50 (Histamine H1 receptor) [µM] | AC50 [1] [µM] | AC50 (Glucagon receptor) [µM] | AC50 [2] [µM] | AC50 [3] [µM] | AC50 [4] [µM] | AC50 [5] [µM] | AC50 (Melanocortin receptor 4) [µM]
CC(=N)N1CC[C@H](SC2=C(C(=O)O)N3C(=O)[C@H]([C@@H](C)O)[C@H]3C2)C1 | > 300 | > 300 | > 300 | 300 | – | – | – | – | – | –
CC1(C)S[C@@H]2[C@H](NC(=O)[C@H](N)c3ccc(O)cc3)C(=O)N2[C@H]1C(=O)O [AMOXICILLIN] | – | > 30 | – | – | > 30 | > 30 | > 10 | > 30 | > 10 | > 30
CCc1oc2ccccc2c1C(=O)c1cc(Br)c(O)c(Br)c1 [BENZBROMARONE] | > 30 | > 30 | – | – | – | – | > 10 | > 30 | – | > 30
C=C(C)[C@@H]1CCC(C)=C[C@H]1c1c(O)cc(CCCCC)cc1O [CANNABIDIOL] | > 30 | > 30 | > 30 | > 30 | – | – | – | – | – | –
COC(=O)[C@H](c1ccccc1Cl)N1CCc2sccc2C1 [CLOPIDOGREL] | > 30 | – | – | – | > 30 | > 30 | > 10 | > 30 | > 10 | > 30
C#Cc1cccc(Nc2ncnc3cc(OCCOC)c(OCCOC)cc23)c1 [ERLOTINIB] | > 30 | – | > 30 | > 30 | – | – | – | – | – | –
CC1(C)O[C@@H]2C[C@H]3[C@@H]4C[C@H](F)C5=CC(=O)C=C[C@]5(C)[C@H]4[C@@H](O)C[C@]3(C)[C@]2(C(=O)CO)O1 [FLUNISOLIDE] | > 30 | – | – | – | – | – | – | – | – | –
C[C@H]1Oc2cc(cnc2N)-c2c(nn(C)c2C#N)CN(C)C(=O)c2ccc(F)cc21 [LORLATINIB] | > 30 | > 30 | > 30 | > 30 | – | – | – | – | – | –
CNC[C@H](O)c1cccc(O)c1 [PHENYLEPHRINE] | – | – | > 10 | – | > 30 | > 30 | > 10 | – | > 10 | > 30
O=C1NC(=O)C(c2ccccc2)(c2ccccc2)N1 [PHENYTOIN] | > 30 | – | – | – | > 30 | > 30 | > 10 | > 10 | – | > 30
CC(C)C[C@H](CN)CC(=O)O [PREGABALIN] | > 30 | – | > 30 | > 30 | > 30 | > 30 | > 10 | > 30 | – | > 30
CNC(=O)c1cc(Oc2ccc(NC(=O)Nc3ccc(Cl)c(C(F)(F)F)c3)c(F)c2)ccn1 [REGORAFENIB] | 17 | > 30 | > 30 | – | – | – | – | – | – | –
CCOc1cc(CC(=O)N[C@@H](CC(C)C)c2ccccc2N2CCCCC2)ccc1C(=O)O [REPAGLINIDE] | > 30 | > 30 | > 30 | > 30 | – | – | – | – | – | –
CCCN(CCC)CCc1cccc2c1CC(=O)N2 [ROPINIROLE] | > 30 | – | 14 | – | > 30 | > 30 | 8.15 | > 10 | 27 | > 30
CCCN(CCc1cccs1)[C@H]1CCc2c(O)cccc2C1 [ROTIGOTINE] | > 30 | > 30 | – | 0.13 | – | – | – | – | – | –
CC[C@H]1OC(=O)[C@H](C)[C@@H](O[C@H]2C[C@@](C)(OC)[C@@H](O)[C@H](C)O2)[C@H](C)[C@@H](O[C@@H]2O[C@H](C)C[C@H](N(C)C)[C@H]2O)[C@](C)(O)C[C@@H](C)/C(=N\OCOCCOC)[C@H](C)[C@@H](O)[C@]1(C)O [ROXITHROMYCIN] | > 30 | – | – | – | – | – | – | – | – | –
CC(=O)S[C@@H]1CC2=CC(=O)CC[C@]2(C)[C@H]2CC[C@@]3(C)[C@@H](CC[C@@]34CCC(=O)O4)[C@H]12 [SPIRONOLACTONE] | > 30 | – | – | – | > 30 | > 30 | > 10 | > 10 | > 10 | > 30
CCCCNc1ccc(C(=O)OCCN(C)C)cc1 [TETRACAINE] | – | – | – | – | > 30 | 9.9 | > 10 | > 10 | 1.42 | > 30
CC1(C)O[C@@H]2[C@@H](CO[C@@]3(COS(N)(=O)=O)OC(C)(C)O[C@@H]23)O1 [TOPIRAMATE] | – | – | > 10 | > 10 | > 30 | > 30 | > 10 | > 10 | > 10 | > 30
